Reference: US8785457B2 (Cellzome Limited, priority 2009, dated 2014)
Where two headings read alike, the source gives them in different places.

Key:
Assay type in all cases: binding
PI3K delta (PI3 Kd) = biological target: T1, PI3K delta (PI3 Kd) (Homo sapiens, UniProt O00329); assay: kinobeads assay, PI3K delta
T1 construct: endogenous in cells; host or cells: Jurkat, clone E6-1 (ATCC TIB-152) cell lysate
In short: (§1)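 Competitive binding in Jurkat cell lysate (5 mg/ml total protein): test compounds at various concentrations competed with beads bearing immobilized phenylmorpholin-chromen ligand. Bead-bound kinases were eluted and quantified by antibody dot blot with infrared detection; IC50 values came from dose-response curves.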

[1] = biological target: T2, DNA-dependent protein kinase (DNA-PK) (Homo sapiens, UniProt P78527); assay: kinobeads assay, DNA-PK
T2 construct: endogenous in cells; host or cells: Jurkat, clone E6-1 (ATCC TIB-152) cell lysate
In short: as §1

PI3Kalpha (PI3Ka) = biological target: T3, PI3Kalpha (PI3Ka) (Homo sapiens, UniProt P42336); assay: kinobeads assay, PI3Kalpha; conditions: for Inhibition values (IC50) PI3Ka: kinobeads assay, Table 6; for IC50 / PI3Ka: Further Kinobeads Data; for IC50: read-out: PI3Ka
T3 construct: endogenous in cells; host or cells: cell lysate
In short: (§2)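 Competitive pull-down in cell lysate: compound (various conc.) + phenylmorpholin-chromen affinity beads, incubate, separate beads, elute. Multiplexed immunodetection of bound kinases; dose-response fit → IC50.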

PI3 Kbeta (PI3 Kb) = biological target: T4, PI3 Kbeta (PI3 Kb) (Homo sapiens, UniProt P42338); assay: kinobeads assay, PI3Kbeta
T4 construct: endogenous in cells; host or cells: cell lysate
In short: as §2

[2] = kinobeads assay, Table 4, read-out: Inhibition values (IC50) PI3Kd
[3] = kinobeads assay, Table 6, read-out: Inhibition values (IC50) PI3Kd
[4] = kinobeads assay, Table 4, read-out: Inhibition values (IC50) DNA-PK
[5] = kinobeads assay, Table 6, read-out: Inhibition values (IC50) DNAPK
[6] = kinobeads assay, Table 6, read-out: Inhibition values (IC50) PI3Kb
[7] = Further Kinobeads Data, read-out: PI3Kd
[8] = Further Kinobeads Data, read-out: DNAPK
[9] = Further Kinobeads Data, read-out: PI3Kb

T3 sequence (P42336 whole entry): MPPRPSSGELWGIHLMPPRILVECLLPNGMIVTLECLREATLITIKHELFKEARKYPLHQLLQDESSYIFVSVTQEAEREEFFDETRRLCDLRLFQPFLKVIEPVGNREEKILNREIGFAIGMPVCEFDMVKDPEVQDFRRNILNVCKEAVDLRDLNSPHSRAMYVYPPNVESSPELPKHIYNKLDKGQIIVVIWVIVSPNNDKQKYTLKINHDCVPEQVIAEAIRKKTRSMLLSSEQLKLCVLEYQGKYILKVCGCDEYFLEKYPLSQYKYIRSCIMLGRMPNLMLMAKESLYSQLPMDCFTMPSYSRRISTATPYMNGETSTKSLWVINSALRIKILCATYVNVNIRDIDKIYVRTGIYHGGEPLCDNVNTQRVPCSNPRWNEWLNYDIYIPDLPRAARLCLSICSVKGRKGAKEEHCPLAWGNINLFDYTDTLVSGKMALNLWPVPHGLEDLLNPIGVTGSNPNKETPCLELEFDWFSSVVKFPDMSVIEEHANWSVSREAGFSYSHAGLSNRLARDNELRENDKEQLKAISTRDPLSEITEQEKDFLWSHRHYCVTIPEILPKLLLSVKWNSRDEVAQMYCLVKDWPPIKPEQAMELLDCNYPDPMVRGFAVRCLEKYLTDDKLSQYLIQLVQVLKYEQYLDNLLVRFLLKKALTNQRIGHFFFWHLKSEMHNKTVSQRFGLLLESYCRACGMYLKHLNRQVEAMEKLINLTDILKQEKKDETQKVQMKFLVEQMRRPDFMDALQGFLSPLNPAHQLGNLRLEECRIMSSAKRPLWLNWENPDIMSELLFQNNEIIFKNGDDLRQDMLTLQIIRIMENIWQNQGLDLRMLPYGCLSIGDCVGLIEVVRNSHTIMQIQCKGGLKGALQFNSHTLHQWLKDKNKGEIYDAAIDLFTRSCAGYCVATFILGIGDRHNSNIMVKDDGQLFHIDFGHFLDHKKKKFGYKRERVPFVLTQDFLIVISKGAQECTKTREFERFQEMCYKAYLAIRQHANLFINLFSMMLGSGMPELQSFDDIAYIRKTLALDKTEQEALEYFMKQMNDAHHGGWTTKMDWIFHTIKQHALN
T3 sequence (P27986 whole entry partner): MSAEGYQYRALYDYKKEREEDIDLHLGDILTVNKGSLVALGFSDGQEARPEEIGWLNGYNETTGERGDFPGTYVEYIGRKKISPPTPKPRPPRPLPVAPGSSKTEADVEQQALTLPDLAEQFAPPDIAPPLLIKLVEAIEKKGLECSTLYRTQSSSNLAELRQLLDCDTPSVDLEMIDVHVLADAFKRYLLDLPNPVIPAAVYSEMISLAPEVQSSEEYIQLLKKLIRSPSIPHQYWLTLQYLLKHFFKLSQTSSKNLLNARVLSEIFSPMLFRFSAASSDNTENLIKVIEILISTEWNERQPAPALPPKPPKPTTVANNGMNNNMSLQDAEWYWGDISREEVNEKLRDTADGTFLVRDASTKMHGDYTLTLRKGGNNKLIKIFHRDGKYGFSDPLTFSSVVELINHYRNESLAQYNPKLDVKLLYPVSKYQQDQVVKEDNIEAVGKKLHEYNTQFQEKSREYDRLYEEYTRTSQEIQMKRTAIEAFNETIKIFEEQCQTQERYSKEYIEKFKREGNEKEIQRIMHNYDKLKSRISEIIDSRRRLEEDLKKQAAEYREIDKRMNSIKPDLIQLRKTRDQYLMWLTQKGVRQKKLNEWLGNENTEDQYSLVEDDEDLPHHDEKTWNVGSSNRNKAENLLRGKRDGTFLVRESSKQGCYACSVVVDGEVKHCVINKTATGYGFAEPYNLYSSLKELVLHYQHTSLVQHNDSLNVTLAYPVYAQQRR
T4 sequence (P42338 whole entry): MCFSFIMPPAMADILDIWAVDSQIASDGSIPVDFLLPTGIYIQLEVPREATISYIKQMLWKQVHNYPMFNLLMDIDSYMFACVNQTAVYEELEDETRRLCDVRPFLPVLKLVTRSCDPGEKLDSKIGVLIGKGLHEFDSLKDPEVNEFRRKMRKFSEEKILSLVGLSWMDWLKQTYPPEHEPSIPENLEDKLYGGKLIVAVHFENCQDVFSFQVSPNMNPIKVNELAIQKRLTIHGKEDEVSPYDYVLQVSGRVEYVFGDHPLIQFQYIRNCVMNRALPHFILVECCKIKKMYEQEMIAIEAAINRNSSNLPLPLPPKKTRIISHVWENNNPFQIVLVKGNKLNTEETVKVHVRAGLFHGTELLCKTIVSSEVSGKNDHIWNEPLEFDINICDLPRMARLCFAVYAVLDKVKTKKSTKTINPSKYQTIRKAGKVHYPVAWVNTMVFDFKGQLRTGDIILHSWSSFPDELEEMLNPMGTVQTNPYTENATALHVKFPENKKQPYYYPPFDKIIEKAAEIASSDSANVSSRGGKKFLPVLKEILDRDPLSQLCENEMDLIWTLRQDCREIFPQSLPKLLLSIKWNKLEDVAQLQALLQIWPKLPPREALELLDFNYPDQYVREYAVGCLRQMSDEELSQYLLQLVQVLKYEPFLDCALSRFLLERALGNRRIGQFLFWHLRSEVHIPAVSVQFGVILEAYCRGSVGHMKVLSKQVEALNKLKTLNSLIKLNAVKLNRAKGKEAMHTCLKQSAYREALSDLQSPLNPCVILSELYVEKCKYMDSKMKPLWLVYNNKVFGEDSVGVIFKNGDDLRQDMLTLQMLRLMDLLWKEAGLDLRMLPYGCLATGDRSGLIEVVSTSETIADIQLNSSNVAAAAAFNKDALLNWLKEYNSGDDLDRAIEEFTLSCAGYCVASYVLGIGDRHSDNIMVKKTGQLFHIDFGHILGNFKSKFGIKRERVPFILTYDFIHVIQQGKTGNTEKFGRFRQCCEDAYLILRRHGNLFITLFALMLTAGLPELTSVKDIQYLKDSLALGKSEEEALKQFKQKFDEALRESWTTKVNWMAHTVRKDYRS
T4 sequence (P27986 whole entry partner): as the sequence (P27986 whole entry partner) above
T1 sequence (O00329 whole entry): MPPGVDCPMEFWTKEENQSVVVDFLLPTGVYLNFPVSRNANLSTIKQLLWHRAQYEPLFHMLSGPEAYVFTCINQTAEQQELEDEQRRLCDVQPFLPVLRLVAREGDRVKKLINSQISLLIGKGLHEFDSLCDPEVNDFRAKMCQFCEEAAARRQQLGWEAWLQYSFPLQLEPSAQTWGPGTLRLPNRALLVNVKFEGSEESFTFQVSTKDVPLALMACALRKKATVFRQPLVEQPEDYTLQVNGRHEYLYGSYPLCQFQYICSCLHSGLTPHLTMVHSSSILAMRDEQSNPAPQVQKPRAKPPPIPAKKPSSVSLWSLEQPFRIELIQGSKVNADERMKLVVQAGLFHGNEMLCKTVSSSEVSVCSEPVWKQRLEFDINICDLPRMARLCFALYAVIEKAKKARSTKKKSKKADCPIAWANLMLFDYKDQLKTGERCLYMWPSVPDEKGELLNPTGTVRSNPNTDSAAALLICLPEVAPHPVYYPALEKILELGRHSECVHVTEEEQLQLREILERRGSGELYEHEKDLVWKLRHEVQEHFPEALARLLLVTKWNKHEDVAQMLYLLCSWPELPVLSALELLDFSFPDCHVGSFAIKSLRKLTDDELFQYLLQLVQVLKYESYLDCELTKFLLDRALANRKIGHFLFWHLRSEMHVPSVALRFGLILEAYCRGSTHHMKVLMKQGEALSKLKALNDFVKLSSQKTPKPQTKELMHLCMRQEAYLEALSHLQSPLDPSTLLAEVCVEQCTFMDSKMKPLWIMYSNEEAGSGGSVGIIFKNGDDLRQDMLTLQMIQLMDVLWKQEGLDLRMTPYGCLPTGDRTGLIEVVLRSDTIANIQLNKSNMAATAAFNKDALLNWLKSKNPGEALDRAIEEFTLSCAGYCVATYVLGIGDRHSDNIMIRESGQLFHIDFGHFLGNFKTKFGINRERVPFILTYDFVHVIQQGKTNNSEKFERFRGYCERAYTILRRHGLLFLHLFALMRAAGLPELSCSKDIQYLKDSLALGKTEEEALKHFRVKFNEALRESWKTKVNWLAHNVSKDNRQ
T1 sequence (P27986 whole entry partner): as the sequence (P27986 whole entry partner) above

Structure (SMILES)	IC50 (PI3K delta (PI3 Kd); [2]) [µM]	IC50 (PI3K delta (PI3 Kd); [3]) [µM]	IC50 [1, 4] [µM]	IC50 [1, 5] [µM]	Inhibition values (IC50) PI3Ka (PI3Kalpha (PI3Ka))	IC50 (PI3 Kbeta (PI3 Kb); [6]) [µM]	IC50 (PI3K delta (PI3 Kd); [7]) [µM]	IC50 [1, 8] [µM]	IC50 (PI3Kalpha (PI3Ka)) [µM]	IC50 (PI3 Kbeta (PI3 Kb); [9]) [µM]	PI3Ka (PI3Kalpha (PI3Ka))
CCNC(=O)Nc1ccc(-c2nc3c(c(N4CCOC[C@@H]4C)n2)CN(Cc2ccc(F)cc2)C3)cc1 [Example 29, (S)-1-ethyl-3-(4-(6-(4-fluorobenzyl)-4-(3-methylmorpholino)-6,7-dihydro-5H-pyrrolo[3,4-d]pyrimidin-2-yl)phenyl)urea]	> 10	> 10	> 10	> 10	D (D >10 μM)	> 10					
CC(C)N1Cc2nc(-c3ccc(NC(=O)NC4CC4)cc3F)nc(N3CCOC[C@@H]3C)c2C1 [Example 172, (S)-1-cyclopropyl-3-(3-fluoro-4-(6-isopropyl-4-(3-methylmorpholino)-6,7-dihydro-5H-pyrrolo[3,4-d]pyrimidin-2-yl)phenyl)urea]							1 to 10	1 to 10	1 to 10	> 10	
CCNC(=O)Nc1ccc(-c2nc3c(c(N4CCOC[C@@H]4C)n2)CCN(C(=O)C2CC2)C3)cc1 [Example 56, (S)-1-(4-(7-(cyclopropanecarbonyl)-4-(3-methylmorpholino)-5,6,7,8-tetrahydropyrido[3,4-d]pyrimidin-2-yl)phenyl)-3-ethylurea]	> 10	> 10	> 10	> 10	D (D >10 μM)	> 10					
CCNC(=O)Nc1cc(F)c(-c2nc3c(c(N4CCOC[C@@H]4C)n2)CN(C(=O)OCC)C3)cc1F [Example 141, (S)-ethyl 2-(4-(3-ethylureido)-2,5-difluorophenyl)-4-(3-methylmorpholino)-5H-pyrrolo[3,4-d]pyrimidine-6(7H)-carboxylate]							> 10	> 10		> 10	D (D >10 μM)
CC(C)N1Cc2nc(-c3ccc(NC(=O)NCCF)cc3F)nc(N3CCOC[C@@H]3C)c2C1 [Example 186, (S)-1-(3-fluoro-4-(6-isopropyl-4-(3-methylmorpholino)-6,7-dihydro-5H-pyrrolo[3,4-d]pyrimidin-2-yl)phenyl)-3-(2-fluoroethyl)urea]							1 to 10	> 10		> 10	D (D >10 μM)
CCNC(=O)Nc1ccc(-c2nc3c(c(N4CCOCC4)n2)CN(C)C3)c(F)c1 [Example 154, 1-ethyl-3-(3-fluoro-4-(6-methyl-4-morpholino-6,7-dihydro-5H-pyrrolo[3,4-d]pyrimidin-2-yl)phenyl)urea]							> 10	> 10		> 10	D (D >10 μM)
C[C@H]1COCCN1c1nc(-c2ccc(NC(=O)Nc3ccc(F)cc3)cc2)nc2c1CN(C)C2 [Example 52, (S)-1-(4-fluorophenyl)-3-(4-(6-methyl-4-(3-methylmorpholino)-6,7-dihydro-5H-pyrrolo[3,4-d]pyrimidin-2-yl)phenyl)urea]	> 10	> 10	> 10	> 10	D (D >10 μM)	> 10					
C[C@H]1COCCN1c1nc(-c2ccc(NC(=O)NC3CC3)cc2F)nc2c1CN(S(C)(=O)=O)C2 [Example 177, (S)-1-cyclopropyl-3-(3-fluoro-4-(4-(3-methylmorpholino)-6-(methylsulfonyl)-6,7-dihydro-5H-pyrrolo[3,4-d]pyrimidin-2-yl)phenyl)urea]							> 10	> 10		> 10	D (D >10 μM)
CN1Cc2nc(-c3ccc(NC(=O)NC4CC4)cc3F)nc(N3CCOCC3)c2C1 [Example 159, 1-(Cyclopropyl)-3-(3-fluoro-4-(6-methyl-4-morpholino-6,7-dihydro-5H-pyrrolo[3,4-d]pyrimidin-2-yl)phenyl)urea]							> 10	> 10	1 to 10	> 10	
CCNC(=O)Nc1ccc(-c2nc3c(c(N4CCOC[C@@H]4C)n2)CN(C(=O)c2ccc(F)cc2)C3)cc1 [Example 19, (S)-1-ethyl-3-(4-(6-(4-fluorobenzoyl)-4-(3-methylmorpholino)-6,7-dihydro-5H-pyrrolo[3,4-d]pyrimidin-2-yl)phenyl)urea]	> 10	> 10	> 10	> 10	D (D >10 μM)	> 10					
C[C@@H]1COCCN1c1nc(-c2ccc(NC(=O)NC3CC3)cc2F)nc2c1CN(S(C)(=O)=O)C2 [Example 191, (R)-1-cyclopropyl-3-(3-fluoro-4-(4-(3-methylmorpholino)-6-(methylsulfonyl)-6,7-dihydro-5H-pyrrolo[3,4-d]pyrimidin-2-yl)phenyl)urea]							> 10	> 10		> 10	D (D >10 μM)
COC(=O)N1Cc2nc(-c3ccc(NC(=O)NC4CC4)cc3F)nc(N3CCOCC3)c2C1 [Example 173, Methyl 2-(4-(3-cyclopropylureido)-2-fluorophenyl)-4-morpholino-5H-pyrrolo[3,4-d]pyrimidine-6(7H)-carboxylate]							> 10	> 10		> 10	D (D >10 μM)
CCNC(=O)Nc1ccc(-c2nc3c(c(N4CCOCC4)n2)CN(C(=O)OCC)C3)c(F)c1 [Example 151, Ethyl 2-(4-(3-ethylureido)-2-fluorophenyl)-4-morpholino-5H-pyrrolo[3,4-d]pyrimidine-6(7H)-carboxylate]							> 10	> 10	1 to 10	> 10	
CCOC(=O)N1Cc2nc(-c3ccc(NC(=O)NCCF)cc3F)nc(N3CCOCC3)c2C1 [Example 170, ethyl 2-(2-fluoro-4-(3-(2-fluoroethyl)ureido)phenyl)-4-morpholino-5H-pyrrolo[3,4-d]pyrimidine-6(7H)-carboxylate]							1 to 10	1 to 10		> 10	D (D >10 μM)
C[C@H]1COCCN1c1nc(-c2ccc(NC(=O)NC3CC3)cc2)nc2c1CN(CC(C)(C)C)C2 [Example 25, (S)-1-cyclopropyl-3-(4-(4-(3-methylmorpholino)-6-neopentyl-6,7-dihydro-5H-pyrrolo[3,4-d]pyrimidin-2-yl)phenyl)urea]	> 10	> 10	> 10	> 10	D (D >10 μM)	> 10					
CC(C)CN1CCc2c(nc(-c3ccc(NC(=O)NC4CC4)cc3)nc2N2CCOC[C@@H]2C)C1 [Example 42, (S)-1-cyclopropyl-3-(4-(7-isobutyl-4-(3-methylmorpholino)-5,6,7,8-tetrahydropyrido[3,4-d]pyrimidin-2-yl)phenyl)urea]	> 10	> 10	> 10	> 10	D (D >10 μM)	> 10					
C[C@H]1COCCN1c1nc(-c2ccc(NC(=O)NC3CC3)cc2F)nc2c1CN(C)C2 [Example 147, (S)-1-cyclopropyl-3-(3-fluoro-4-(6-methyl-4-(3-methylmorpholino)-6,7-dihydro-5H-pyrrolo[3,4-d]pyrimidin-2-yl)phenyl)urea]							> 10	> 10		> 10	D (D >10 μM)
CNC(=O)Nc1ccc(-c2nc3c(c(N4CCOC[C@@H]4C)n2)CN(CC2CC2)C3)cc1 [Example 47, (S)-1-(4-(6-(cyclopropylmethyl)-4-(3-methylmorpholino)-6,7-dihydro-5H-pyrrolo[3,4-d]pyrimidin-2-yl)phenyl)-3-methylurea]	1 to 10	1 to 10	> 10	> 10							
CCNC(=O)N1Cc2nc(-c3ccc(NC(=O)NC4CC4)cc3)nc(N3CCOC[C@@H]3C)c2C1 [Example 33, (S)-2-(4-(3-cyclopropylureido)phenyl)-N-ethyl-4-(3-methylmorpholino)-5H-pyrrolo[3,4-d]pyrimidine-6(7H)-carboxamide]	> 10	> 10	> 10	> 10							
CC(=O)N1Cc2nc(-c3ccc(NC(=O)NC4CC4)cc3)nc(N3CCOC[C@@H]3C)c2C1 [Example 20, (S)-1-(4-(6-acetyl-4-(3-methylmorpholino)-6,7-dihydro-5H-pyrrolo[3,4-d]pyrimidin-2-yl)phenyl)-3-cyclopropylurea]	> 10	> 10	> 10	> 10							
CCNC(=O)Nc1ccc(-c2nc3c(c(N4CCOC[C@@H]4C)n2)CN(C)C3)cc1 [Example 26, (S)-1-ethyl-3-(4-(6-methyl-4-(3-methylmorpholino)-6,7-dihydro-5H-pyrrolo[3,4-d]pyrimidin-2-yl)phenyl)urea]	> 10	> 10	> 10	> 10							
CCNC(=O)Nc1ccc(-c2nc3c(c(N4CCOC[C@@H]4C)n2)CCNC3)cc1 [Example 13, (S)-1-ethyl-3-(4-(4-(3-methylmorpholino)-5,6,7,8-tetrahydropyrido[3,4-d]pyrimidin-2yl)phenyl)urea]	> 10	> 10	> 10	> 10							
